The NIST ThermoML archive (doi:10.1021/je034096z)

Conditions: Liquid

COCC(C)O (stereo not given) [1-methoxy-2-propanol]
Conditions	vapor or sublimation pressure [kPa]
347.62 K	19.25
352.64 K	23.74
353.15 K	24.25
357.89 K	29.35
362.93 K	35.72
363.15 K	36.03
368.03 K	43.29
373.15 K	52.16
373.22 K	52.3
378.01 K	61.89

CCCCCCOCCOCCO [2-(2-hexyloxyethoxy)ethanol]
Conditions	vapor or sublimation pressure [kPa]
402.96 K	1.111
403.01 K	1.117
403.15 K	1.124
408.02 K	1.435
413.15 K	1.831
413.2 K	1.835
418.17 K	2.293
422.87 K	2.825
423.15 K	2.858

CC(O)CO (stereo not given) [1,2-propanediol]
Conditions	vapor or sublimation pressure [kPa]
393.22 K	8.198
393.25 K	8.207
398.09 K	10.23
403.14 K	12.77
403.15 K	12.77
408.3 K	15.89
413.1 K	19.36
413.15 K	19.39
418.16 K	23.68
423.15 K	28.69
423.26 K	28.81

CN1CCCC1=O [N-methylpyrrolidone]
Conditions	vapor or sublimation pressure [kPa]
352.27 K	1.285
352.48 K	1.297
353.15 K	1.344
359.26 K	1.823
363.15 K	2.193
363.36 K	2.217
368.27 K	2.777
373.09 K	3.444
373.15 K	3.456
377.86 K	4.229
